Measured values: patent US20260174875A1 (Novo Nordisk A/S, priority 2023, published 2026)
Read-outs that look alike come from different tables or passages of the source.

Tests used:
Type in all cases: cell-based
[1] = target: T1, human GIP receptor (hGIPR) (Homo sapiens, UniProt P48546); assay: GIP receptor assay, method B (CRE-luciferase reporter, BHK cells, 384-well)
T1 construct: expressed in transfected cells
T1 sequence (P48546 22-466): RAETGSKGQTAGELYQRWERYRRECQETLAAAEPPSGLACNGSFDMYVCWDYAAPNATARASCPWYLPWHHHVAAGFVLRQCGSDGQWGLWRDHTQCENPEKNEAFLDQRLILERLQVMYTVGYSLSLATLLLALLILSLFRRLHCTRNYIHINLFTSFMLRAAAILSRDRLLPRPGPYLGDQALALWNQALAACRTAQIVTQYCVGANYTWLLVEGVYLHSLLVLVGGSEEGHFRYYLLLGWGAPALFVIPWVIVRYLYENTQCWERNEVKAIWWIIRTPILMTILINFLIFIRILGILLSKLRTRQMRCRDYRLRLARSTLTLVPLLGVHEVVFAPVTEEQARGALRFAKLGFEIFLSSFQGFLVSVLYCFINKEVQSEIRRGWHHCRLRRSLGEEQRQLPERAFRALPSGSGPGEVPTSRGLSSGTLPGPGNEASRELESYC
Description: Activation of the human GIP receptor leads to increased intra-cellular concentrations of cyclic AMP (cAMP) and the consequent transcription activation from promoters containing multiple copies of the cAMP response element (CRE). It is thus possible to measure GIP receptor activity using a CRE-luciferase reporter gene introduced into Baby Hamster Kidney (BHK) cells co-expressing the human GIP receptor.
Cells at about 80-90% confluency were washed once with PBS (Gibco 14190-094) and detached from the cell flasks with Versene (Gibco, 15040-066). After centrifugation, the cells were counted, resuspended and diluted to approximately 1.5-3.0×10^6 (1.5E+6 to 3.0E+6) cells/mL in Recovery Cell Culture Freezing Medium (Gibco, 12648-010) and stored at −180° C. in suitable aliquots until use.
The assay buffer consisted of DMEM without phenol red (Gibco, 11880-028) supplemented with 1× GlutaMAX (Gibco, 35050-038), 10 mM HEPES (Gibco, 15630-056), 1% (w/v) ovalbumin (Sigma, A5503) and 0.1% (v/v) Pluronic F-68 (Gibco, 24040-032) either with HSA or without HSA (Sigma, A9511).
Serial dilutions were transferred to a 384-well assay plate (PerkinElmer/Revvity, 6007688) and mixed with an equal volume (10 μL) of assay buffer without or with 3% HSA (Sigma, A-9511). Frozen stocks of hGIPR BHK Cre-Luc cells were thawed in a 37° C. water bath, washed once in PBS (Gibco 14190-094), diluted to 1.5×10^5 (1.5E+5) cells/mL in assay buffer (without HSA) and added (10 μL) to each well of the 384-well assay plate. After a short centrifugation, the assay plates were incubated for 3 hours at 37° C. in 5% CO2 and let to equilibrated at room temperature for 10 minutes before the addition of 30 μL steadylite Plus™ (PerkinElmer/Revvity, 6066759) per well. Plates were sealed and incubated at room temperature with gentle shaking for 30 minutes while protected from light. Luminescence was detected on a luminescence plate reader e.g. a Synergy 2 (BioTek).

[2] = target: T2, human amylin receptor (hAMYR3) (Homo sapiens, UniProt O60896+P30988); assay: Amylin receptor assay, method B (CRE-luciferase reporter, BHK cells)
T2 construct: host or cells: BHK cells (Hollex-1 line expressing hCTR(a) and CRE-Luc), further transfected with human RAMP3
Protocol: To assess how the activation of the receptors is potentially influenced by the presence of human serum albumin (HSA), the in vitro assays were performed in the absence of HSA and presence of 1% (w/v) HSA.
It is thus possible to measure hAMYR3 activity using a CRE-luciferase reporter gene introduced into Baby Hamster Kidney (BHK) cells co-expressing the hAMYR3.
The cell line was further transfected with human receptor modifying protein 3 (RAMP3) using standard methods.
After centrifugation, the cell pellet was resuspended and diluted to approximately 2.5-4.0×10^6 (2.5E+6 to 4.0E+6) cells/mL in Recovery™ Cell Culture Freezing Medium (Gibco, 12648-010). Cells were aliquoted and stored at −180° C. until use.
The assay buffer consisted of DMEM without phenol red (Gibco, 11880-028) supplemented with 1× GlutaMAX (Gibco, 35050-038), 10 mM HEPES (Gibco, 15630-056) and 1% (w/v) ovalbumin (Sigma, A5503) either with or without 0.1% (v/v) Pluronic F-68 (Gibco, 24040-032) and either with or without HSA (Sigma, A9511).
To perform the assay, hAMYR3 BHK Cre-Luc cells were thawed, washed once in PBS (Gibco 14190-094) and seeded in 40 μL growth medium in a white 384-well culture plate (PerkinElmer/Revvity, 6007688) at a cell density of 4.0×10^3 (4.0E+3) cells/well the day before the experiment. The plate was incubated over night at 37° C. in 5% CO2. […] Serial dilutions were then mixed in a new 96-well plate with equal volume (1:1:1 ratio) of assay buffer and either assay buffer without or with 3% HSA (Sigma, A-9511). Twenty microliters of the solution mix were transferred to the cells which previously were washed once with PBS (Gibco 14190-094). After a short centrifugation, the assay plates were incubated for 3 hours at 37° C. in 5% CO2 and let to equilibrated at room temperature for 10 minutes before the addition of 30 μL steadylite Plus™ PerkinElmer/Revvity, 6066759) per well. Plates were sealed and incubated at room temperature with gentle shaking for 30 minutes while protected from light. Luminescence was detected on a luminescence plate reader e.g., a Synergy 2 (BioTek).

[3] = target: T3, human GLP-1 receptor (hGLP-1R) (Homo sapiens, UniProt P43220); assay: GLP-1 receptor assay, method B (CRE-luciferase reporter, BHK cells, 384-well)
T3 construct: expressed in transfected cells

[4] = hGIPR Potency, 1% HSA, EC50, methods B, in the presence of 1% HSA
[5] = method B, absence of HSA, read-out: hGIPR Potency, no HSA, EC50
[6] = hAMYR3 Potency, 1% HSA, EC50, methods B, in the presence of 1% HSA
[7] = method B, absence of HSA, read-out: hAMYR3 Potency, no HSA, EC50
[8] = hGLP-1R Potency, 1% HSA, EC50, methods B, in the presence of 1% HSA
[9] = method B, absence of HSA, read-out: hGLP-1R Potency, no HSA, EC50

T2 sequence (P30988 25-474): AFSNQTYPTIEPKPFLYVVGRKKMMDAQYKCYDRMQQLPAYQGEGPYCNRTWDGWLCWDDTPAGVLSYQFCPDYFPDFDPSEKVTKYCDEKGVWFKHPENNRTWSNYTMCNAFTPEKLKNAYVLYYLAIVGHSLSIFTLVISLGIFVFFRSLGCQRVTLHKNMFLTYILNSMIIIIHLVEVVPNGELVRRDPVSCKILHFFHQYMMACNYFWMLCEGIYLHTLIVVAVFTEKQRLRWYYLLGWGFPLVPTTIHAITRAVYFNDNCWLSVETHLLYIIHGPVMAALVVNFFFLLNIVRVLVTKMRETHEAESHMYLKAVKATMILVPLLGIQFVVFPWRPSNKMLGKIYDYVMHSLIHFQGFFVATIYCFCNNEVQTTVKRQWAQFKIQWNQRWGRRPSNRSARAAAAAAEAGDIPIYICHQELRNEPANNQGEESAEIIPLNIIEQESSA
T2 sequence (O60896 24-148): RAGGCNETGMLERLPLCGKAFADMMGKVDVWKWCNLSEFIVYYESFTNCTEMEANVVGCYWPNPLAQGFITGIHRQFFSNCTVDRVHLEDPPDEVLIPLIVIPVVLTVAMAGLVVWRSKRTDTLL
T3 sequence (P43220 24-463): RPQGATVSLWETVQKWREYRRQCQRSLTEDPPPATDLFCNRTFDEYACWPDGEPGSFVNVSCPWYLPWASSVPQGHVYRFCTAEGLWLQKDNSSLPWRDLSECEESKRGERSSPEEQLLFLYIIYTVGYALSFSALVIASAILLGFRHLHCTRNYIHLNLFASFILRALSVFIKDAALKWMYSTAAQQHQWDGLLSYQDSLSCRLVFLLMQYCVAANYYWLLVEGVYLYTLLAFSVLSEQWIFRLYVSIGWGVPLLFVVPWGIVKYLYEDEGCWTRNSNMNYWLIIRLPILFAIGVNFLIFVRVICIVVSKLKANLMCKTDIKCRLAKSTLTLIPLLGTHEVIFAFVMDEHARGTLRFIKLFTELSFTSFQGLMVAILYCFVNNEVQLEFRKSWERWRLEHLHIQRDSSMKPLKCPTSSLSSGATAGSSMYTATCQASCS

Row | SMILES | EC50 [1, 4] | EC50 [1, 5] | EC50 [2, 6] | EC50 [2, 7] | EC50 [3, 8] | EC50 [3, 9]
1 | CC[C@H](C)[C@H](NC(=O)[C@H](CCC(=O)O)NC(=O)[C@H](CCC(=O)O)NC(=O)[C@H](CC(C)C)NC(=O)[C@H](CC(C)C)NC(=O)[C@@H](NC(=O)[C@H](CO)NC(=O)[C@H](Cc1ccc(O)cc1)NC(=O)[C@H](CC(=O)O)NC(=O)[C@H](CO)NC(=O)[C@@H](NC(=O)[C@H](Cc1ccccc1)NC(=O)[C@@H](NC(=O)CNC(=O)[C@H](CCC(=O)O)NC(=O)C(C)(C)NC(=O)[C@@H](N)Cc1ccc(O)cc1)[C@@H](C)O)[C@@H](C)O)[C@@H](C)CC)C(=O)N[C@@H](C)C(=O)N[C@@H](C)C(=O)N[C@@H](CCCNC(=N)N)C(=O)N[C@@H](CCC(=O)O)C(=O)N[C@@H](Cc1ccccc1)C(=O)N[C@H](C(=O)N[C@@H](CCC(=O)O)C(=O)N[C@@H](Cc1c[nH]c2ccccc12)C(=O)N[C@@H](CC(C)C)C(=O)N[C@@H](CC(C)C)C(=O)N[C@@H](C)C(=O)NCC(=O)NCC(=O)N1CCC[C@H]1C(=O)N[C@@H](CO)C(=O)N[C@@H](CO)C(=O)NCC(=O)N[C@@H](C)C(=O)NCC(=O)N[C@@H](CCC(N)=O)C(=O)N[C@@H](C)C(=O)N[C@@H](CCC(=O)O)C(=O)NCC(=O)N[C@@H](CCC(N)=O)C(=O)N[C@@H](C)C(=O)N1CCC[C@H]1C(=O)NCC(=O)N[C@@H](C)C(=O)N[C@@H](CO)C(=O)N[C@@H](Cc1c[nH]cn1)C(=O)N[C@@H](CC(C)C)C(=O)N[C@@H](CO)C(=O)N[C@H](C(=O)N[C@@H](C)C(=O)N[C@@H](CCC(N)=O)C(=O)N[C@H](C(=O)N[C@@H](CCC(N)=O)C(=O)N[C@@H](CCCNC(=N)N)C(=O)N[C@@H](CC(C)C)C(=O)N[C@@H](CO)C(=O)N[C@@H](C)C(=O)N[C@@H](CCC(=O)O)C(=O)N[C@@H](CC(C)C)C(=O)N[C@@H](Cc1c[nH]cn1)C(=O)N[C@@H](CCCCNC(=O)COCCOCCNC(=O)COCCOCCNC(=O)CC[C@H](NC(=O)CCCCCCCCCCCCCCCCCCC(=O)O)C(=O)O)C(=O)N[C@@H](CC(C)C)C(=O)N[C@@H](C)C(=O)N[C@H](C(=O)N[C@@H](CC(C)C)C(=O)N1CCC[C@H]1C(=O)N[C@@H](CCCNC(=N)N)C(=O)N[C@H](C(=O)N[C@@H](CCC(=O)O)C(=O)N[C@H](C(=O)NCC(=O)N[C@@H](CO)C(=O)NCC(=O)N[C@@H](CO)C(=O)N1CCC[C@H]1C(N)=O)[C@@H](C)O)[C@@H](C)O)[C@@H](C)O)[C@@H](C)O)[C@@H](C)O)[C@@H](C)CC [Compound 150] | 0.0107 nM | 0.00299 nM | 0.961 nM | 0.00761 nM | 0.0653 nM | 0.0262 nM
2 | CC[C@H](C)[C@H](NC(=O)[C@H](CCC(=O)O)NC(=O)[C@H](CCC(=O)O)NC(=O)[C@H](CC(C)C)NC(=O)[C@H](CC(C)C)NC(=O)[C@@H](NC(=O)[C@H](CO)NC(=O)[C@H](Cc1ccc(O)cc1)NC(=O)[C@H](CC(=O)O)NC(=O)[C@H](CO)NC(=O)[C@@H](NC(=O)[C@H](Cc1ccccc1)NC(=O)[C@@H](NC(=O)CNC(=O)[C@H](CCC(=O)O)NC(=O)C(C)(C)NC(=O)[C@@H](N)Cc1ccc(O)cc1)[C@@H](C)O)[C@@H](C)O)[C@@H](C)CC)C(=O)N[C@@H](C)C(=O)N[C@@H](C)C(=O)N[C@@H](CCCNC(=N)N)C(=O)N[C@@H](CCC(=O)O)C(=O)N[C@@H](Cc1ccccc1)C(=O)N[C@H](C(=O)N[C@@H](CCC(=O)O)C(=O)N[C@@H](Cc1c[nH]c2ccccc12)C(=O)N[C@@H](CC(C)C)C(=O)N[C@@H](CC(C)C)C(=O)N[C@@H](C)C(=O)NCC(=O)NCC(=O)N1CCC[C@H]1C(=O)N[C@@H](CO)C(=O)N[C@@H](CO)C(=O)NCC(=O)N[C@@H](C)C(=O)NCC(=O)N[C@@H](CCC(N)=O)C(=O)N[C@@H](C)C(=O)N1CCC[C@H]1C(=O)N[C@@H](CCC(=O)O)C(=O)N[C@@H](CCC(N)=O)C(=O)N[C@@H](C)C(=O)N1CCC[C@H]1C(=O)NCC(=O)N[C@@H](C)C(=O)N[C@@H](CO)C(=O)N[C@@H](Cc1c[nH]cn1)C(=O)N[C@@H](CC(C)C)C(=O)N[C@@H](CO)C(=O)N[C@H](C(=O)N[C@@H](C)C(=O)N[C@@H](CCC(N)=O)C(=O)N[C@H](C(=O)N[C@@H](CCC(N)=O)C(=O)N[C@@H](CCCNC(=N)N)C(=O)N[C@@H](CC(C)C)C(=O)N[C@@H](CO)C(=O)N[C@@H](C)C(=O)N[C@@H](CCC(=O)O)C(=O)N[C@@H](CC(C)C)C(=O)N[C@@H](Cc1c[nH]cn1)C(=O)N[C@@H](CCCCNC(=O)COCCOCCNC(=O)COCCOCCNC(=O)CC[C@H](NC(=O)CCCCCCCCCCCCCCCCCCC(=O)O)C(=O)O)C(=O)N[C@@H](CC(C)C)C(=O)N[C@@H](C)C(=O)N[C@H](C(=O)N[C@@H](CC(C)C)C(=O)N1CCC[C@H]1C(=O)N[C@@H](CCCNC(=N)N)C(=O)N[C@H](C(=O)N[C@@H](CCC(=O)O)C(=O)N[C@H](C(=O)NCC(=O)N[C@@H](CO)C(=O)NCC(=O)N[C@@H](CO)C(=O)N1CCC[C@H]1C(N)=O)[C@@H](C)O)[C@@H](C)O)[C@@H](C)O)[C@@H](C)O)[C@@H](C)O)[C@@H](C)CC [Compound 151] | 0.0139 nM | 0.00399 nM | 0.95 nM | 0.00967 nM | 0.0726 nM | 0.0277 nM
3 | CC[C@H](C)[C@H](NC(=O)[C@H](CCC(=O)O)NC(=O)[C@H](CCC(=O)O)NC(=O)[C@H](CC(C)C)NC(=O)[C@H](CC(C)C)NC(=O)[C@@H](NC(=O)[C@H](CO)NC(=O)[C@H](Cc1ccc(O)cc1)NC(=O)[C@H](CC(=O)O)NC(=O)[C@H](CO)NC(=O)[C@@H](NC(=O)[C@H](Cc1ccccc1)NC(=O)[C@@H](NC(=O)CNC(=O)[C@H](CCC(=O)O)NC(=O)C(C)(C)NC(=O)[C@@H](N)Cc1ccc(O)cc1)[C@@H](C)O)[C@@H](C)O)[C@@H](C)CC)C(=O)N[C@@H](C)C(=O)N[C@@H](C)C(=O)N[C@@H](CCCNC(=N)N)C(=O)N[C@@H](CCC(=O)O)C(=O)N[C@@H](Cc1ccccc1)C(=O)N[C@H](C(=O)N[C@@H](CCC(=O)O)C(=O)N[C@@H](Cc1c[nH]c2ccccc12)C(=O)N[C@@H](CC(C)C)C(=O)N[C@@H](CC(C)C)C(=O)N[C@@H](C)C(=O)NCC(=O)NCC(=O)N1CCC[C@H]1C(=O)N[C@@H](CO)C(=O)N[C@@H](CO)C(=O)NCC(=O)N[C@@H](C)C(=O)NCC(=O)N[C@@H](CCC(N)=O)C(=O)N[C@@H](C)C(=O)N1CCC[C@H]1C(=O)NCC(=O)N[C@@H](CCC(=O)O)C(=O)N[C@@H](C)C(=O)N1CCC[C@H]1C(=O)NCC(=O)N[C@@H](C)C(=O)N[C@@H](CO)C(=O)N[C@@H](Cc1c[nH]cn1)C(=O)N[C@@H](CC(C)C)C(=O)N[C@@H](CO)C(=O)N[C@H](C(=O)N[C@@H](C)C(=O)N[C@@H](CCC(N)=O)C(=O)N[C@H](C(=O)N[C@@H](CCC(N)=O)C(=O)N[C@@H](CCCNC(=N)N)C(=O)N[C@@H](CC(C)C)C(=O)N[C@@H](CO)C(=O)N[C@@H](C)C(=O)N[C@@H](CCC(=O)O)C(=O)N[C@@H](CC(C)C)C(=O)N[C@@H](Cc1c[nH]cn1)C(=O)N[C@@H](CCCCNC(=O)COCCOCCNC(=O)COCCOCCNC(=O)CC[C@H](NC(=O)CCCCCCCCCCCCCCCCCCC(=O)O)C(=O)O)C(=O)N[C@@H](CC(C)C)C(=O)N[C@@H](C)C(=O)N[C@H](C(=O)N[C@@H](CC(C)C)C(=O)N1CCC[C@H]1C(=O)N[C@@H](CCCNC(=N)N)C(=O)N[C@H](C(=O)N[C@@H](CCC(=O)O)C(=O)N[C@H](C(=O)NCC(=O)N[C@@H](CO)C(=O)NCC(=O)N[C@@H](CO)C(=O)N1CCC[C@H]1C(N)=O)[C@@H](C)O)[C@@H](C)O)[C@@H](C)O)[C@@H](C)O)[C@@H](C)O)[C@@H](C)CC [Compound 152] | 0.0114 nM | 0.00383 nM | 0.914 nM | 0.0085 nM | 0.0674 nM | 0.0224 nM
